# PubChem BioAssay AID2060359 (Molecular Pharmacology Branch, DTP, NCI, 2025)
# Values joined by “and” are separate entries in the source; they are usually repeats but may differ in a detail not shown here. Identical values can stand only once.
# Tested on: 276233-004-R-J1-PDC spheroids with HUVEC/MSC, viability
# Test: Anticancer human tumor 276233-004-R-J1-PDC patient-derived colon adenocarcinoma cell line growth inhibition [TAK]
# Settings: for viability, T/C: stronger effect = lower value
# Excerpt: Combinatorial screen of targeted agents with TAK-243 and ipatasertib in multi-cell type tumor spheroids
# A high-throughput screen of multi-cell type tumor spheroids was designed to identify active combinations of targeted small molecules and TAK-243 or ipatasertib. Complex spheroids include a stromal component modeled by human endothelial cells (HUVEC) and fibroblasts modeled by human mesenchymal stem cells (MSCs). The concentration ranges selected for each drug and investigational agent were based upon clinically achievable concentrations if the clinical Cmax of the agent was known.
# Compounds. The drugs and investigational agents: TAK-243 (785004), ipatasertib (767898), everolimus (733504), selumetinib (741078), bortezomib (756655), trametinib (758246), ixazomib (758254), vemurafenib (761431), dabrafenib (764134), sapanisertib (764658), alpelisib (765974), and copanlisib (816437), were obtained from the National Cancer Institute (NCI) Developmental Therapeutics Program Chemical Repository. The FDA-approved anticancer drug set is available from the NCI Developmental Therapeutics Program. […] The stock solutions were prepared in dimethyl sulfoxide (DMSO, Sigma-Aldrich, St. Louis, MO, cat. D2650) at 800-fold the tested concentration and stored at -70 degrees C prior to their use. All drugs and investigational agents were tested over a range starting from a high concentration at or near the clinical Cmax and decreasing in half-log increments. If the clinical Cmax for an agent had not been determined, the highest concentration tested was 10 microM.
# NCI60 Cell Culture. NCI60 cell lines were obtained from the NCI Developmental Therapeutics Program Tumor Repository. For each lot of cells, the Repository performed Applied Biosystems AmpFLSTR Identifiler testing with PCR amplification to confirm consistency with the published Identifier STR profile for each cell line. Cells were kept in continuous culture for no more than 20 passages. The optimal seeding densities for each of the cell lines at each time point assessed were determined prior to performing the concentration response studies. Briefly, the NCI60 human tumor lines were grown as monolayers in RPMI 1640 medium supplemented with 10% FBS and 2 mmol/L L-glutamine.
# An additional 2 lines were from the NCI60 cell line panel including melanomas, MALME-3M and SK-MEL-2. Pooled donor human umbilical vein endothelial cells (HUVEC, Lonza, cat. CC-2519) and human mesenchymal stem cells (hMSC, Lonza, cat. PT-2501) were purchased from Lonza (Walkersville, MD).
# PDMR cell lines were grown in complete medium (DC medium): Dulbecco's modified Eagle's medium (DMEM)/F12 supplemented with 5% fetal bovine serum (FBS), 2 mM L-glutamine, 100 U/mL penicillin and 100 µg/ml streptomycin, 0.4 µg/ml hydrocortisone, 10 ng/ml epidermal growth factor (EGF) recombinant human protein, 24 µg/mL adenine, and 0.1 mg/mL primocin. During culture from frozen stock vials, PDMR cells were cultured in the same medium containing 10 µM Y-27632 (see Table 3). The PDCs were cultured in complete DMEM/F12 media without 10 microM Y-27632 dihydrochloride for at least two passages prior to the screen. The pooled donor HUVEC and hMSC were cultured in endothelial cell growth medium 2 (PromoCell, Heidelberg, Germany, cat. C-22011) and mesenchymal stem cell growth medium 2 (PromoCell, cat. C-28009), respectively. For all experiments, HUVEC and hMSC were used at passages </=5.
# For the pre-screen, cell seeding densities were determined from a titration spanning the range from 5,000 to 313 cells per well. The mct-spheroids including 60% malignant cells, 25% HUVEC and 15% MSC dispensed as a mixture into U-bottom Ultra-Low Attachment 384-well plates (Corning, NY)
# High-throughput Drug Combination Screening.
# Prior to their inoculation into 384-well plates, malignant cells, HUVEC, and hMSC were removed from T flasks using TrypLE express (Thermo Fisher Scientific, cat. 12605036) and harvested by centrifugation for 5 min at 233 x g. […]
# 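Further: spheroids exposed to drugs for seven days before the viability read.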
compound,measurement,setting,value
CC(=O)Nc1cccc(-n2c(=O)n(C3CC3)c(=O)c3c(Nc4ccc(I)cc4F)n(C)c(=O)c(C)c32)c1,"viability, T/C",compound 94.9 pM,92.8% and 120%
same,"viability, T/C",compound 0.0003 µM,81.6% and 81.1%
same,"viability, T/C",compound 0.000949 µM,88.4% and 73.1%
same,"viability, T/C",compound 0.003 µM,70.1% and 70%
same,"viability, T/C",compound 0.00949 µM,61.6% and 54.3%
same,"viability, T/C",compound 0.03 µM,37.1% and 44.9%
same,IC50,curve of compound,15.7 nM and 29.7 nM
CC(C)(C)c1nc(-c2cccc(NS(=O)(=O)c3c(F)cccc3F)c2F)c(-c2ccnc(N)n2)s1,"viability, T/C",compound 0.0316 µM,93.4% and 107%
same,"viability, T/C",compound 0.1 µM,86.3% and 116%
same,"viability, T/C",compound 0.316 µM,113% and 106%
same,"viability, T/C",compound 1 µM,86.4% and 100%
same,"viability, T/C",compound 3.16 µM,77.2% and 58.5%
same,"viability, T/C",compound 10 µM,84.5% and 86.9%
same,IC50,curve of compound,> 10000 nM
CC(C)CC(NC(=O)C(Cc1ccccc1)NC(=O)c1cnccn1)B(O)O (configuration not stated),"viability, T/C",compound 31.6 pM,107% and 98.8%
same,"viability, T/C",compound 0.0001 µM,88.1% and 105%
same,"viability, T/C",compound 0.000316 µM,97.6% and 93.5%
same,"viability, T/C",compound 0.001 µM,91.4% and 106%
same,"viability, T/C",compound 0.00316 µM,89.8% and 112%
same,"viability, T/C",compound 0.01 µM,12.6% and 10%
same,IC50,curve of compound,5.72 nM and 6.1 nM
CC(C)CC(NC(=O)CNC(=O)c1cc(Cl)ccc1Cl)B1OC(=O)CC(CC(=O)O)(C(=O)O)O1 (configuration not stated),"viability, T/C",compound 0.000316 µM,99.7% and 101%
same,"viability, T/C",compound 0.001 µM,110% and 108%
same,"viability, T/C",compound 0.00316 µM,102% and 83.4%
same,"viability, T/C",compound 0.01 µM,103% and 92.3%
same,"viability, T/C",compound 0.0316 µM,91.4% and 105%
same,"viability, T/C",compound 0.1 µM,19.5% and 23.7%
same,IC50,curve of compound,61.4 nM and 66.5 nM
CC(C)NCC(C(=O)N1CCN(c2ncnc3c2C(C)CC3O)CC1)c1ccc(Cl)cc1 (configuration not stated),"viability, T/C",compound 0.949 µM,84.7% [middle of 10 runs]
same,"viability, T/C",compound 3 µM,82.2% [middle of 10 runs]
same,IC50,"compound alone, run of 03/19/2020",> 30000 nM
CC(C)n1nc(-c2ccc3oc(N)nc3c2)c2c(N)ncnc21,"viability, T/C",compound 0.000316 µM,104% and 103%
same,"viability, T/C",compound 0.001 µM,116% and 96.9%
same,"viability, T/C",compound 0.00316 µM,90.4% and 95.4%
same,"viability, T/C",compound 0.01 µM,76.1% and 71.7%
same,"viability, T/C",compound 0.0316 µM,82.8% and 66.4%
same,"viability, T/C",compound 0.1 µM,62% and 57.5%
same,IC50,curve of compound,> 100 nM
CCCS(=O)(=O)Nc1ccc(F)c(C(=O)c2c[nH]c3ncc(-c4ccc(Cl)cc4)cc23)c1F,"viability, T/C",compound 0.316 µM,81.8% and 103%
same,"viability, T/C",compound 1 µM,84.5% and 105%
same,"viability, T/C",compound 3.16 µM,114% and 104%
same,"viability, T/C",compound 10 µM,103% and 121%
same,"viability, T/C",compound 31.6 µM,103% and 89%
same,"viability, T/C",compound 100 µM,99% and 98.9%
same,IC50,curve of compound,> 100000 nM
COC1CC2CCC(C)C(O)(O2)C(=O)C(=O)N2CCCCC2C(=O)OC(C(C)CC2CCC(OCCO)C(OC)C2)CC(=O)C(C)C=C(C)C(O)C(OC)C(=O)C(C)CC(C)C=CC=CC=C1C (configuration not stated),"viability, T/C",compound 0.000316 µM,107% and 100%
same,"viability, T/C",compound 0.001 µM,94.7% and 93.2%
same,"viability, T/C",compound 0.00316 µM,83.6% and 81.6%
same,"viability, T/C",compound 0.01 µM,78.3% and 67.6%
same,"viability, T/C",compound 0.0316 µM,77.4% and 80.3%
same,"viability, T/C",compound 0.1 µM,66.3% and 64.1%
same,IC50,curve of compound,> 100 nM
COc1c(OCCCN2CCOCC2)ccc2c3n(c(=NC(=O)c4cnc(N)nc4)nc12)CCN3,"viability, T/C",compound 0.00316 µM,82.5% and 97.5%
same,"viability, T/C",compound 0.01 µM,64.3% and 80.6%
same,"viability, T/C",compound 0.0316 µM,55.6% and 59.9%
same,"viability, T/C",compound 0.1 µM,50.8% and 57.9%
same,"viability, T/C",compound 0.316 µM,43.1% and 47.6%
same,"viability, T/C",compound 1 µM,47.2% and 63.4%
Cc1nc(NC(=O)N2CCCC2C(N)=O)sc1-c1ccnc(C(C)(C)C(F)(F)F)c1 (configuration not stated),"viability, T/C",compound 0.0316 µM,100% and 88.8%
same,"viability, T/C",compound 0.1 µM,89.7% and 95.4%
same,"viability, T/C",compound 0.316 µM,80% and 70.7%
same,"viability, T/C",compound 1 µM,61.8% and 64.2%
same,"viability, T/C",compound 3.16 µM,64% and 56.8%
same,"viability, T/C",compound 10 µM,42.8% and 50.4%
same,IC50,curve of compound,6270 nM and > 10000 nM
Cn1cnc2c(F)c(Nc3ccc(Br)cc3Cl)c(C(=O)NOCCO)cc21,"viability, T/C",compound 0.00949 µM,83.5% and 81.4%
same,"viability, T/C",compound 0.03 µM,81.7% and 79.9%
same,"viability, T/C",compound 0.0949 µM,62.3% and 70.2%
same,"viability, T/C",compound 0.3 µM,70.4% and 70.3%
same,"viability, T/C",compound 0.949 µM,57% and 62.4%
same,"viability, T/C",compound 3 µM,45.9% and 44.9%
same,IC50,curve of compound,2100 nM and 2190 nM
COC1CC2CCC(C)C(O)(O2)C(=O)C(=O)N2CCCCC2C(=O)OC(C(C)CC2CCC(OCCO)C(OC)C2)CC(=O)C(C)C=C(C)C(O)C(OC)C(=O)C(C)CC(C)C=CC=CC=C1C (configuration not stated) + CC(C)NCC(C(=O)N1CCN(c2ncnc3c2C(C)CC3O)CC1)c1ccc(Cl)cc1,IC50,"curve of first compound, second compound 0.3 µM",> 100 nM
same,IC50,"curve of first compound, second compound 0.949 µM",> 100 nM
same,IC50,"curve of first compound, second compound 3 µM",> 100 nM
same,IC50,"curve of first compound, second compound 9.49 µM",> 100 nM
same,IC50,"curve of first compound, second compound 30 µM",> 100 nM
same,"viability, T/C","second compound 0.3 µM, first compound 0.000316 µM",126%
same,"viability, T/C","second compound 0.3 µM, first compound 0.001 µM",81.9%
same,"viability, T/C","second compound 0.3 µM, first compound 0.00316 µM",75.9%
same,"viability, T/C","second compound 0.3 µM, first compound 0.01 µM",79.3%
same,"viability, T/C","second compound 0.3 µM, first compound 0.0316 µM",67.5%
same,"viability, T/C","second compound 0.3 µM, first compound 0.1 µM",71.3%
same,"viability, T/C","second compound 0.949 µM, first compound 0.000316 µM",74.3%
same,"viability, T/C","second compound 0.949 µM, first compound 0.001 µM",93.3%
same,"viability, T/C","second compound 0.949 µM, first compound 0.00316 µM",81.9%
same,"viability, T/C","second compound 0.949 µM, first compound 0.01 µM",70.5%
same,"viability, T/C","second compound 0.949 µM, first compound 0.0316 µM",68.3%
same,"viability, T/C","second compound 0.949 µM, first compound 0.1 µM",58.4%
same,"viability, T/C","second compound 3 µM, first compound 0.000316 µM",72.3%
same,"viability, T/C","second compound 3 µM, first compound 0.001 µM",65.5%
same,"viability, T/C","second compound 3 µM, first compound 0.00316 µM",57.4%
same,"viability, T/C","second compound 3 µM, first compound 0.01 µM",68.2%
same,"viability, T/C","second compound 3 µM, first compound 0.0316 µM",54.9%
same,"viability, T/C","second compound 3 µM, first compound 0.1 µM",57.9%
same,"viability, T/C","second compound 9.49 µM, first compound 0.000316 µM",55.9%
same,"viability, T/C","second compound 9.49 µM, first compound 0.001 µM",57.3%
same,"viability, T/C","second compound 9.49 µM, first compound 0.00316 µM",49.1%
same,"viability, T/C","second compound 9.49 µM, first compound 0.01 µM",53.6%
same,"viability, T/C","second compound 9.49 µM, first compound 0.0316 µM",51.4%
same,"viability, T/C","second compound 9.49 µM, first compound 0.1 µM",54.1%
same,"viability, T/C","second compound 30 µM, first compound 0.000316 µM",53.8%
same,"viability, T/C","second compound 30 µM, first compound 0.001 µM",61%
same,"viability, T/C","second compound 30 µM, first compound 0.00316 µM",48.2%
same,"viability, T/C","second compound 30 µM, first compound 0.01 µM",54.2%
same,"viability, T/C","second compound 30 µM, first compound 0.0316 µM",59%
same,"viability, T/C","second compound 30 µM, first compound 0.1 µM",51.7%
